# Assay results taken from patent US20250235427A1, “5-METHOXY-N,N-[…][…] THE TREATMENT OF SOCIAL/EMOTIONAL […] DETACHMENT” (GH RESEARCH IRELAND LIMITED, priority 2022, published 2025).
# Tested on: patients with postpartum depression (PPD)
# Test: Clinical trial, inhaled 5-MeO-DMT individualized dosing regimen in postpartum depression (one patient so far)
# Procedure: The single-arm, open-label clinical trial will involve 15 adult female patients with clinically diagnosed postpartum depression (PPD).
# The second dose (12 mg) will only be administered if: • a. […] The 6 mg dose was safe and well-tolerated according to the investigator, • c. Any psychoactive effects (PsE) of the prior dose have subsided, and • d. Pre-dose vital parameters and forced expiratory volume in one second (FEV1) are in normal range, or if outside of the normal range, are not clinically significant according to the investigator. • 3. Similarly, a third dose (18 mg) will only be administered if: • a. […] The 12 mg dose was safe and well-tolerated according to the investigator, and • c. Any PsE of the prior dose have subsided, and • d. Pre-dose vital parameters and forced expiratory volume in one second (FEV1) are in normal range, or if outside of the normal range, are not clinically significant according to the investigator.
# The patients will be assessed for a peak psychedelic experience (based on a patient-scored visual analogue scale, the PE scale), sedation, and other endpoints after dosing. Follow-up visits are planned for Day 1, and Day 7 after the dosing day.
compound,measurement,setting,value
COc1ccc2[nH]cc(CCN(C)C)c2c1 [5-MeO-DMT],standard criteria for MADRS response (at least 50% improvement) and MADRS remission (total score equal or less than 10),,fulfilled
same,tolerability of the inhalation procedure,,well tolerated with no inhalation-related adverse events
same,MADRS Concentration Difficulties improvement,"2 hr, baseline 0",0
same,MADRS Concentration Difficulties score,"2 hr, baseline 0",0
same,MADRS Reduced appetite improvement,"2 hr, baseline 0",0
same,MADRS Reduced appetite score,"2 hr, baseline 0",0
same,MADRS Suicidal Thoughts improvement,"2 hr, baseline 0",0
same,MADRS Suicidal Thoughts score,"2 hr, baseline 0",0
same,MADRS Inability to Feel improvement,"2 hr, baseline 3",3
same,MADRS Inability to Feel score,"2 hr, baseline 3",0
same,MADRS Lassitude improvement,"2 hr, baseline 3",3
same,MADRS Lassitude score,"2 hr, baseline 3",0
same,MADRS Pessimistic Thoughts improvement,"2 hr, baseline 4",4
same,MADRS Pessimistic Thoughts score,"2 hr, baseline 4",0
same,MADRS Reported sadness improvement,"2 hr, baseline 4",4
same,MADRS Reported sadness score,"2 hr, baseline 4",0
same,MADRS Apparent sadness improvement,"2 hr, baseline 5",5
same,MADRS Apparent sadness score,"2 hr, baseline 5",0
same,MADRS Inner Tension improvement,"2 hr, baseline 5",5
same,MADRS Inner Tension score,"2 hr, baseline 5",0
same,MADRS Reduced Sleep improvement,"2 hr, baseline 5",0
same,MADRS Reduced Sleep score,"2 hr, baseline 5",5
same,reported adverse events (cramping left abdominal pain and headache),Day 0,"mild, short-lasting and resolved spontaneously"
same,MADRS Concentration Difficulties improvement,"Day 1, baseline 0",0
same,MADRS Concentration Difficulties score,"Day 1, baseline 0",0
same,MADRS Reduced appetite improvement,"Day 1, baseline 0",0
same,MADRS Reduced appetite score,"Day 1, baseline 0",0
same,MADRS Suicidal Thoughts improvement,"Day 1, baseline 0",0
same,MADRS Suicidal Thoughts score,"Day 1, baseline 0",0
same,BPRS Blunted affect improvement,"Day 1, baseline 1",0
same,BPRS Blunted affect score,"Day 1, baseline 1",1
same,BPRS Conceptual disorganization improvement,"Day 1, baseline 1",0
same,BPRS Conceptual disorganization score,"Day 1, baseline 1",1
same,BPRS Disorientation improvement,"Day 1, baseline 1",0
same,BPRS Disorientation score,"Day 1, baseline 1",1
same,BPRS Grandiosity improvement,"Day 1, baseline 1",0
same,BPRS Grandiosity score,"Day 1, baseline 1",1
same,BPRS Hallucinatory behaviour improvement,"Day 1, baseline 1",0
same,BPRS Hallucinatory behaviour score,"Day 1, baseline 1",1
same,BPRS Hostility improvement,"Day 1, baseline 1",0
same,BPRS Hostility score,"Day 1, baseline 1",1
same,BPRS Mannerisms and Posturing improvement,"Day 1, baseline 1",0
same,BPRS Mannerisms and Posturing score,"Day 1, baseline 1",1
same,BPRS Motor retardation improvement,"Day 1, baseline 1",0
same,BPRS Motor retardation score,"Day 1, baseline 1",1
same,BPRS Suspiciousness improvement,"Day 1, baseline 1",0
same,BPRS Suspiciousness score,"Day 1, baseline 1",1
same,BPRS Uncooperativeness improvement,"Day 1, baseline 1",0
same,BPRS Uncooperativeness score,"Day 1, baseline 1",1
same,BPRS Unusual Thought Content improvement,"Day 1, baseline 1",0
same,BPRS Unusual Thought Content score,"Day 1, baseline 1",1
same,BPRS Excitement improvement,"Day 1, baseline 2",1
same,BPRS Excitement score,"Day 1, baseline 2",1
same,MADRS Inability to Feel improvement,"Day 1, baseline 3",3
same,MADRS Inability to Feel score,"Day 1, baseline 3",0
same,MADRS Lassitude improvement,"Day 1, baseline 3",3
same,MADRS Lassitude score,"Day 1, baseline 3",0
same,MADRS Pessimistic Thoughts improvement,"Day 1, baseline 4",4
same,MADRS Pessimistic Thoughts score,"Day 1, baseline 4",0
same,MADRS Reported sadness improvement,"Day 1, baseline 4",4
same,MADRS Reported sadness score,"Day 1, baseline 4",0
same,BPRS Emotional withdrawal improvement,"Day 1, baseline 5",4
same,BPRS Emotional withdrawal score,"Day 1, baseline 5",1
same,MADRS Apparent sadness improvement,"Day 1, baseline 5",5
same,MADRS Apparent sadness score,"Day 1, baseline 5",0
same,MADRS Inner Tension improvement,"Day 1, baseline 5",5
same,MADRS Inner Tension score,"Day 1, baseline 5",0
same,MADRS Reduced Sleep improvement,"Day 1, baseline 5",5
same,MADRS Reduced Sleep score,"Day 1, baseline 5",0
same,BPRS Depressive Mood improvement,"Day 1, baseline 6",5
same,BPRS Depressive Mood score,"Day 1, baseline 6",1
same,BPRS Guilt feelings improvement,"Day 1, baseline 6",5
same,BPRS Guilt feelings score,"Day 1, baseline 6",1
same,BPRS Somatic Concern improvement,"Day 1, baseline 6",5
same,BPRS Somatic Concern score,"Day 1, baseline 6",1
same,BPRS Tension improvement,"Day 1, baseline 6",5
same,BPRS Tension score,"Day 1, baseline 6",1
same,BPRS Anxiety improvement,"Day 1, baseline 7",6
same,BPRS Anxiety score,"Day 1, baseline 7",1
same,BIMF item 2 (I feel rested) score,"Day 7, Day 0 score 0",2
same,"BIMF item 19 (As time goes on, I am getting better at taking care of my baby) score","Day 7, Day 0 score 0",1
same,BIMF item 18 (Anxiety or worry often interferes with my mothering ability) score,"Day 7, Day 0 score 2",5
same,BIMF item 13 (I am taking good care of my physical needs) score,"Day 7, Day 0 score 4",5
same,BIMF item 4 (My baby and I understand each other) score,"Day 7, Day 0 score 5",5
same,BIMF item 5 (I am able to relax and enjoy time with my baby) score,"Day 7, Day 0 score 5",6
same,BIMF item 9 (I am getting enough encouragement from other people) score,"Day 7, Day 0 score 5",6
same,BIMF item 10 (I trust my own feelings (instincts) when it comes to taking care of my baby) score,"Day 7, Day 0 score 5",6
same,BIMF item 15 (My baby and I are getting into a routine) score,"Day 7, Day 0 score 5",6
same,BIMF item 17 (I am able to take care of my baby and my other responsibilities) score,"Day 7, Day 0 score 5",5
same,BIMF item 1 (I am a good mother) score,"Day 7, Day 0 score 6",6
same,BIMF item 3 (I am comfortable with the way I've chosen to feed my baby) score,"Day 7, Day 0 score 6",6
same,BIMF item 6 (There are people in my life that I can trust to care for my baby when I need a break) score,"Day 7, Day 0 score 6",6
same,BIMF item 8 (I am getting enough adult interaction) score,"Day 7, Day 0 score 6",6
same,BIMF item 12 (I am taking good care of my baby's physical needs) score,"Day 7, Day 0 score 6",6
same,BIMF item 14 (I make good decisions about my baby's health and well being) score,"Day 7, Day 0 score 6",6
same,BIMF item 20 (I am satisfied with the job I am doing as a new mother) score,"Day 7, Day 0 score 6",5
same,MADRS Concentration Difficulties improvement,"Day 7, baseline 0",0
same,MADRS Concentration Difficulties score,"Day 7, baseline 0",0
same,MADRS Reduced appetite improvement,"Day 7, baseline 0",0
same,MADRS Reduced appetite score,"Day 7, baseline 0",0
same,MADRS Suicidal Thoughts improvement,"Day 7, baseline 0",0
same,MADRS Suicidal Thoughts score,"Day 7, baseline 0",0
same,BPRS Blunted affect improvement,"Day 7, baseline 1",0
same,BPRS Blunted affect score,"Day 7, baseline 1",1
same,BPRS Conceptual disorganization improvement,"Day 7, baseline 1",0
same,BPRS Conceptual disorganization score,"Day 7, baseline 1",1
same,BPRS Disorientation improvement,"Day 7, baseline 1",0
